Data: BindingDB's records for doi:10.1111/j.1476-5381.1995.tb14977.x (Syntex Discovery Research, 1995)
“And” between values parts separate entries of the source, which are not always exact repeats. Equal entries are not always repeated.

Tests used:
[1] = target: 5-hydroxytryptamine receptor 2B (Homo sapiens, UniProt P41595)
[2] = target: T1, 5-hydroxytryptamine receptor 2C (Homo sapiens, UniProt P28335)
T1 sequence (P28335 whole entry): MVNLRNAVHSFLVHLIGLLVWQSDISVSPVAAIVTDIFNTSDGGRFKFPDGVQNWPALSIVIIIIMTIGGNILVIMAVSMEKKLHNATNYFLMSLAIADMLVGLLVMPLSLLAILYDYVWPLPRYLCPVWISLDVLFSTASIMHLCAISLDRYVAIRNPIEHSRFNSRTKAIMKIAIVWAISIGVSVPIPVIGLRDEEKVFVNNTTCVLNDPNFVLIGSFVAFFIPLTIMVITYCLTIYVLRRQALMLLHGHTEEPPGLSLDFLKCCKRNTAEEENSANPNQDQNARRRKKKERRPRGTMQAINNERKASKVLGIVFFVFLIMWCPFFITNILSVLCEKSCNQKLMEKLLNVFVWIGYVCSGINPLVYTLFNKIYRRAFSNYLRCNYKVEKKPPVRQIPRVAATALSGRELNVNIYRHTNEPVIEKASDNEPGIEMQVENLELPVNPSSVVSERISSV

[3] = target: T2, 5-hydroxytryptamine receptor 2C (Rattus norvegicus, UniProt P08909)
T2 sequence (P08909 whole entry): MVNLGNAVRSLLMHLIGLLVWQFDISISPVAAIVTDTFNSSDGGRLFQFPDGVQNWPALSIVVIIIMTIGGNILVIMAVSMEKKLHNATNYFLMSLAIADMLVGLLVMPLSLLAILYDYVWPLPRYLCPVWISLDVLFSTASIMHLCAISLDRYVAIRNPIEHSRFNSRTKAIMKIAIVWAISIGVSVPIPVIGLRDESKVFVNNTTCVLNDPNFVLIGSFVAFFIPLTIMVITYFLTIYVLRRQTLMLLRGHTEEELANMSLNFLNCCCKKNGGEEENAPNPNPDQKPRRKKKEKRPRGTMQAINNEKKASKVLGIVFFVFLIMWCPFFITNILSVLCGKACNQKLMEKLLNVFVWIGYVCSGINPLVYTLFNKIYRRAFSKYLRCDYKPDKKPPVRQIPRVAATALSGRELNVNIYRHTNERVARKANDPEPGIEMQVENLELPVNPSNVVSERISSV

[4] = target: 5-hydroxytryptamine receptor 2B (Rattus norvegicus, UniProt P30994)
Sequence of 5-hydroxytryptamine receptor 2B (Rattus norvegicus, UniProt P30994) (P30994 whole entry): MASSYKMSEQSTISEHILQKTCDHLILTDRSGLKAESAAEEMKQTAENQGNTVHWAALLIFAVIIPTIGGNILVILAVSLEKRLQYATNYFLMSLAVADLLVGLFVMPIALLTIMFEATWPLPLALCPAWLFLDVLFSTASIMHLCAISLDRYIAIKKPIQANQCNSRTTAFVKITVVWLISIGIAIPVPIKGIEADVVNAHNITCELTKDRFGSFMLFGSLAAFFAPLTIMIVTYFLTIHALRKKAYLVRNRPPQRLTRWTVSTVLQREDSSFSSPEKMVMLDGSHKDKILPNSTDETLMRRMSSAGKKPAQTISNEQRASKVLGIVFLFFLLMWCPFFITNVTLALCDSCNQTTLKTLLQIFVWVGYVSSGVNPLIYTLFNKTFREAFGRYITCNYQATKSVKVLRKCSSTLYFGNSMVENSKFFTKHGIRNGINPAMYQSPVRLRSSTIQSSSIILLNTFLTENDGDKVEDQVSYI

Sequence of 5-hydroxytryptamine receptor 2B (Homo sapiens, UniProt P41595) (P41595 whole entry): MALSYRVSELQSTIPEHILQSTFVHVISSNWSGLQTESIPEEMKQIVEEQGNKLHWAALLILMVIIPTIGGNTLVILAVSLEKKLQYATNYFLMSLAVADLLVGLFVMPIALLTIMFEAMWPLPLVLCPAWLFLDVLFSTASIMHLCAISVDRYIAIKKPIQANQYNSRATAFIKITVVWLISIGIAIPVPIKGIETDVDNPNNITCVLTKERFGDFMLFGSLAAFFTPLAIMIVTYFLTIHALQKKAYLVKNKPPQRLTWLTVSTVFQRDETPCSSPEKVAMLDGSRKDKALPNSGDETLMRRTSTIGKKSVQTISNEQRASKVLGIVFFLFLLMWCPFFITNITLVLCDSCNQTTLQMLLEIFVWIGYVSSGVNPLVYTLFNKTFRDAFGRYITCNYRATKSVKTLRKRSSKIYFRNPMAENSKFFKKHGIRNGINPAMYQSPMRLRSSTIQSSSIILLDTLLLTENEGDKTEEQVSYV

Row | SMILES | Ki [1] [nM] | Ki [2] | Ki [3] [nM] | Ki [4] [nM]
1 | Cc1nc2sccn2c(=O)c1CCN1CCC(=C(c2ccc(F)cc2)c2ccc(F)cc2)CC1 | 5.01 | 0.25 nM |  | 
2 | CC[C@@H](CO)NC(=O)[C@@H]1C=C2c3cccc4c3c(cn4C)C[C@H]2N(C)C1 |  | 1.58 nM | 1.99 | 
3 | O=C(c1ccc(F)cc1)C1CCN(CCn2c(=O)[nH]c3ccccc3c2=O)CC1 [3-(2-{4-[(4-fluorophenyl)carbonyl]piperidin-1-yl}ethyl)-1,2,3,4-tetrahydroquinazoline-2,4-dione] |  |  | 63.1 | 3980
4 | O=C(CCCN1CCC2(CC1)C(=O)NCN2c1ccccc1)c1ccc(F)cc1 [8-[4-(4-fluorophenyl)-4-oxidanylidene-butyl]-1-phenyl-1,3,8-triazaspiro[4.5]decan-4-one] | 1580 | 501 nM and 1000 nM |  | 
5 | Cn1ccc2cc(NC(=O)Nc3cccnc3)ccc21 [SB 200646] | 631 | 501 nM | 1000 | 
6 | Clc1cccc(N2CCNCC2)c1 [mCPP] |  |  | 126 | 25.1
7 | COC(=O)[C@@H]1[C@H]2C[C@H]3c4[nH]c5ccccc5c4CCN3C[C@@H]2CC[C@@H]1O [yohimbic acid methyl ester] |  |  | > 10000 | 50.1
